This is an account of results in patent US5629304A, “Therapeutic agent for thrombocytopenia and indolocarbazole derivatives” (Kyowa Hakko Kogyo Co., Ltd., priority 1994, dated 1997).

One experiment deals with platelets. Kind of experiment: Platelet Production-Stimulating Activity in Mice. In kind it is in vivo, BALB/c mice. The conditions noted are these: 20 mg/kg i.p. once a day, day 1 to 5; blood on day 15; vs solvent control. An excerpt:
Platelet Production-Stimulating Activity in Mice
A test compound was intraperitoneally administered to four 7-week-old male BALB/c mice per group once a day for consecutive 5 days (day 1 to day 5). A control group (4 mice per group) received only the solvent (5% Tween 80/water). The blood was collected from the fundus oculi vein of each animal on the 15th day from the start of administration (day 15), and the number of the platelets was counted with a microcell counter (Model CC-180A, manufactured by Toa Iryo Denshi Co.). The rate of increase of the number of platelets in the test group (average) over the control (average) was calculated according to the following formula to evaluate the effect of the test compound.
A: the number of platelets in test group
B: the number of platelets in control group
As to `CN(C)CCCn1c2ccccc2c2c3c(c4c5ccccc5n(C)c4c21)C(=O)N(C)C3=O` [Compound 25], the “Rate of increase (number of platelets, A/B×100)” value (“Rate of increase” for short) came to 151%.

The same experiment, now with this note: 25 mg/kg i.p. once a day, day 1 to 5; blood on day 15; vs solvent control.
As to `CCN(CC)CCCn1c2ccc(O)cc2c2c3c(c4c5cc(O)ccc5n(C)c4c21)C(=O)N(C)C3=O` [Compound 108], the “Rate of increase” value turned out to be 179%.

Staying with this experiment, now noted: 40 mg/kg i.p. once a day, day 1 to 5; blood on day 15; vs solvent control.
On to `CCN(CC)CCCn1c2ccccc2c2c3c(c4c5ccccc5n(C)c4c21)C(=O)N(C)C3=O` [Compound 27], for which the “Rate of increase” value stood at 187%.

`CCN(CC)CCCn1c2ccc(Br)cc2c2c3c(c4c5cc(Br)ccc5n(C)c4c21)C(=O)N(C)C3=O` [Compound 110]: the “Rate of increase” value turned out to be 184%.

With `CCCN(C)CCCn1c2ccccc2c2c3c(c4c5ccccc5n(C)c4c21)C(=O)N(C)C3=O` [Compound 31], the “Rate of increase” value was 161%.

In the next experiment the test system is megakaryocyte colony formation (bone marrow cells). The experiment is described as follows: Megakaryocyte colony formation-stimulating activity. In kind it is cell-based, BALB/c mouse. The note with it: 1 nM; control (IL-3 alone) defined as 100; IL-3 100 U/ml; 7 days. As for the experimental part:
Megakaryocyte colony formation-stimulating activity
An eight-weeks-old BALB/c mouse was killed. Its femurs and cervical vertebrae were taken out, and both end sections thereof were cut off. Bone marrow cells were collected from the pieces cut off from the femurs and cervical vertebrae using a syringe containing IMDM (430-2200EA prepared by Gibco Co.), and then blown into a test tube. The test tube was allowed to stand for 5 minutes, and the supernatant was collected with a pipet. To a reaction mixture comprising the bone marrow cells (50,000 cells), bovine serum albumin (2%: A4508 made by Sigma Co.), transferrin (600 μg/ml: 652202 made by Boehringer Mannheim Co.), IL-3 (100 U/ml), cholesterol (16 μg/ml: 036-0641 made by Wako Co.) and agar (0.6%: 0142-02 made by Difco Laboratories) were separately added the test compounds at various concentrations, and 1 ml each of the mixtures was put into a 35-mm dish (Lux Co.), followed by incubation under the conditions of 37° C., 5% CO2 and a humidity of 95% or more for 7 days. Separately, IL-3 alone was added to the bone marrow cells to prepare a control. After the incubation was completed, the agar was dried over a filter paper (1001-055 made by Whatman Co.) and then fixed with 2.5% glutaraldehyde, followed by acetylcholinesterase staining (ACHE staining).
The ACHE staining was carried out by the method described below.
ACHE staining: To each sample was added a solution comprising 0.67 mg/ml acetylthiocholine iodide, 2.94 mg/ml sodium citrate, 7.5 mg/ml copper (II) sulfate and 1.65 mg/ml potassium ferricyanide, and the mixture was allowed to stand at room temperature in the dark for 4-6 hours.
A group of 4 or more megakaryocytes which were stained reddish brown was regarded as a colony, and the number of colonies per dish was calculated using a microscope. The results are shown in Table 2 as relative values to the control.
Turning to `CN1C(=O)C(c2c[nH]c3ccccc23)=C(c2c[nH]c3ccccc23)C1=O` [Compound 93], the “Rel. Value (megakaryocyte colonies per dish relative to the control)” value worked out at 109.

Turning to `CN1Cc2c(c3c4ccccc4n(Cc4ccc(N(C)C)cc4)c3c3c2c2ccccc2n3Cc2ccc(N(C)C)cc2)C1=O` [Compound 20], the “Rel. Value (megakaryocyte colonies per dish relative to the control)” value came to 140.

Turning to `CN1Cc2c(c3c4ccccc4[nH]c3c3[nH]c4ccccc4c23)C1=O` [Compound 80], the “Rel. Value (megakaryocyte colonies per dish relative to the control)” value was 111.

As to `CCOC(=O)Cn1c2ccccc2c2c3c(c4c5ccccc5n(CC(=O)OCC)c4c21)C(=O)NC3` [Compound 85], the “Rel. Value (megakaryocyte colonies per dish relative to the control)” value came out at 125.

On to `CN1Cc2c(c3c4ccccc4n(C)c3c3c2c2ccccc2n3C)C1=O` [Compound 9], for which the “Rel. Value (megakaryocyte colonies per dish relative to the control)” value stood at 128.

With `CNCCCn1c2ccccc2c2c3c(c4c5ccccc5n(C)c4c21)C(=O)N(C)C3=O` [Compound 26], the “Rel. Value (megakaryocyte colonies per dish relative to the control)” value is recorded as 117.

As for `C=CCn1c2ccccc2c2c3c(c4c5ccccc5n(CC=C)c4c21)C(=O)N(C)C3=O` [Compound 82], the “Rel. Value (megakaryocyte colonies per dish relative to the control)” value came out at 101.

As to `O=C1NCc2c1c1c3ccccc3n(CCCO)c1c1c2c2ccccc2n1CCCO` [Compound 86], the “Rel. Value (megakaryocyte colonies per dish relative to the control)” value turned out to be 131.

As to `Cn1c2ccccc2c2c3c(c4c5ccccc5n(C)c4c21)C(=O)NC3` [Compound 91], the “Rel. Value (megakaryocyte colonies per dish relative to the control)” value is given as 111.

With `CCN(CC)CCCn1c2ccc(Br)cc2c2c3c(c4c5cc(Br)ccc5n(C)c4c21)C(=O)N(C)C3=O` [Compound 110], the “Rel. Value (megakaryocyte colonies per dish relative to the control)” value turned out to be 137.

Turning to `O=C1NCc2c1c1c3ccccc3[nH]c1c1c2c2ccccc2n1CCCN1CCOCC1` [Compound 88], the “Rel. Value (megakaryocyte colonies per dish relative to the control)” value is reported as 120.

Consider `O=C1c2c(c3c4ccccc4[nH]c3c3[nH]c4ccccc4c23)CN1C1CCCCO1` (stereo not drawn) [Compound 89], for which the “Rel. Value (megakaryocyte colonies per dish relative to the control)” value is 110.

Take `CN1C(=O)c2c(c3c4ccccc4n(CC(O)CO)c3c3[nH]c4ccccc4c23)C1=O` (stereo not drawn) [Compound 83]: the “Rel. Value (megakaryocyte colonies per dish relative to the control)” value is 111.

Staying with this experiment, now noted: 10 nM; control (IL-3 alone) defined as 100; IL-3 100 U/ml; 7 days.
With `C=CCn1c2ccccc2c2c3c(c4c5ccccc5[nH]c4c21)C(=O)N(C)C3=O` [Compound 81], the “Rel. Value (megakaryocyte colonies per dish relative to the control)” value was 113.

Consider `CN1C(=O)c2c(c3c4ccccc4n(CC(O)CO)c3c3c2c2ccccc2n3CC(O)CO)C1=O` (stereo not drawn) [Compound 84], for which the “Rel. Value (megakaryocyte colonies per dish relative to the control)” value worked out at 132.

`O=C1NCc2c1c1c3ccccc3n(Cc3ccccc3)c1c1c2c2ccccc2n1Cc1ccccc1` [Compound 90]: the “Rel. Value (megakaryocyte colonies per dish relative to the control)” value stood at 106.
